Reference: PMC4245550, “Exploring the Chemodiversity and Biological Activities of the Secondary Metabolites from the Marine Fungus Neosartorya pseudofischeri” (Marine Drugs, 2014)
In brackets after ≈: the same amount, converted by molar mass. Where two headings read alike, the source gives them in different places.

Experiments:
[1] = test system: human colon cancer cell line HCT-116; test: Cytotoxicity, MTS assay
[2] = test system: Staphylococcus aureus (ATCC29213); test: Antibacterial activity, broth dilution method (Mueller–Hinton broth), MIC
[3] = test system: Escherichia coli (ATCC25922); test: as above
[4] = test system: Methicillin-resistant staphylococcus aureus (R3708); test: as above
[5] = test system: Staphylococcus aureus (ATCC29213), Methicillin-resistant staphylococcus aureus (R3708) and Escherichia coli (ATCC25922); test: Antibacterial activity against three multidrug-resistant bacteria, broth dilution (summary statements)
[6] = test system: human embryonic kidney (HEK) 293 cell line; test: Cytotoxicity, MTS assay
[7] = ATCC25922|ATCC29213, read-out: MIC values ranging over the three bacteria

Molecule | IC50 ([1]; Homo sapiens, HCT-116, 72 h) [µM] | MIC [2] [µM] | MIC [3] [µM] | MIC [4] [µM] | MIC [5] [µg/mL] | IC50 ([6]; Homo sapiens, HEK293, 72 h) [µM] | other results
O=c1[nH]cc(F)c(=O)[nH]1 [5-Fluorouracil, reference compound] | 2.04 ± 0.22 | – | – | – | – | – | –
CC1(C)S[C@@H]2[C@H](NC(=O)[C@H](N)c3ccccc3)C(=O)N2[C@H]1C(=O)O [Ampicillin sodium, reference compound] | – | 8.07 | 6.73 | 129 | – | – | –
COC1(CO)C(=O)n2c(cc3ccccc32)C(=O)N1C (stereo not drawn) [Compound 2, 1,2,3,4-tetrahydro-3-methoxyl-3-hydroxylmethyl-2-methyl-1,4-dioxopyrazino[1,2-a]indole] | – | – | – | – | > 256 | – | –
CC1C(=O)n2c(cc3ccccc32)C(=O)N1C (stereo not drawn) [Compound 3, 1,2,3,4-tetrahydro-2,3-dimethyl-1,4-dioxopyrazino[1,2-a]indole] | – | – | – | – | > 256 | – | –
C=c1c(=O)n2c(cc3ccccc32)c(=O)n1C [Compound 4, 1,2,3,4-tetrahydro-2-methyl-3-methylene-1,4-dioxopyrazino[1,2-a]indole] | 10.3 ± 1.41 | 283 (≈ 64 µg/mL) | > 1130 | 70.7 (≈ 16 µg/mL) | – | 30.1 ± 0.9 | –
CN1C(=O)C(=O)n2c(cc3ccccc32)C1=O [Compound 5, 1,2,3,4-tetrahydro-2-methyl-1,3,4-trioxopyrazino[1,2-a]indole] | > 50 | – | – | – | > 256 | > 50 | –
CNC(=O)c1cc2ccccc2[nH]1 [Compound 6, N-methyl-1H-indole-2-carboxamide] | – | – | – | – | > 256 | – | –
CN1C(=O)[C@]23CC4=CC=C[C@H](O)[C@H]4N2C(=O)[C@@]1(CO)SS3 [Compound 7, gliotoxin] | 1.24 ± 0.38 | 12.2 (≈ 3.98 µg/mL) | 24.5 (≈ 8.01 µg/mL) | 1.53 (≈ 0.499 µg/mL) | – | 1.58 ± 0.03 | MIC [5, 7]: 1.52 to 97.6 µM
CC(=O)OC1C=CC=C2CC34SSC(CO)(C(=O)N3C21)N(C)C4=O (stereo not drawn) [Compound 8, acetylgliotoxin] | 0.89 ± 0.04 | 86.9 (≈ 32 µg/mL) | > 696 | 21.7 (≈ 8.01 µg/mL) | – | 4.49 ± 0.24 | –
CN1C(=O)C2(S)CC3=CC=CC(O)C3N2C(=O)C1(S)CO (stereo not drawn) [Compound 9, reduced gliotoxin] | 0.43 ± 0.04 | 48.8 (≈ 16 µg/mL) | 97.6 (≈ 32 µg/mL) | 1.52 (≈ 0.499 µg/mL) | – | 1.26 ± 0.04 | MIC [5, 7]: 1.52 to 97.6 µM
CSC1(CO)C(=O)N2C3C(=CC=CC3OC(C)=O)CC2(SC)C(=O)N1C (stereo not drawn) [Compound 10, 6-acetylbis(methylthio)gliotoxin] | > 50 | – | – | – | > 256 | > 50 | –
CSC1(CO)C(=O)N2c3ccccc3CC2(SC)C(=O)N1C (stereo not drawn) [Compound 12, didehydrobisdethiobis(methylthio)gliotoxin] | > 50 | – | – | – | > 256 | > 50 | –
CSC1(CO)NC(=O)C(Cc2ccccc2)(SC)NC1=O (stereo not drawn) [Compound 13, bis-N-norgliovictin] | > 50 | – | – | – | > 256 | > 50 | –
CN[C@H](CC(C)C)C(=O)N[C@H]1C(=O)N[C@@H](CC(N)=O)C(=O)N[C@H]2C(=O)N[C@H]3C(=O)N[C@H](C(=O)N[C@H](C(=O)O)c4cc(O)cc(O)c4-c4cc3ccc4O)[C@H](O)c3ccc(c(Cl)c3)Oc3cc2cc(c3O[C@@H]2O[C@H](CO)[C@@H](O)[C@H](O)[C@H]2O[C@H]2C[C@](C)(N)[C@H](O)[C@H](C)O2)Oc2ccc(cc2Cl)[C@H]1O [Vancomycin, reference compound] | – | 0.84 (≈ 1.22 µg/mL) | – | 2.01 (≈ 2.91 µg/mL) | – | – | –
bisdethiobis(methylthio)gliotoxin [Compound 11] | – | – | – | – | – | – | IC50 ([6]; 293 cells, 72 h, MTS, n = 5): 16.4 ± 0.38 µM; IC50 ([1]; HCT-116 cells, 72 h, MTS, n = 5): 8.59 ± 0.96 µM
